According to patent US11045542B2, “Method of reducing reactogenicity induced by administration of vaccine or immunogenic composition” (GLAXOSMITHKLINE BIOLOGICALS, SA, priority 2015, dated 2021):

How the values were obtained:
Type in all cases: in vivo, Mice
[1] = test system: cytokines (TNFα, IL-6, IL1b and INFγ) and chemokine (G-CSF, MCP-1, KC and MIP-1a) levels in muscle; assay: Effect of MaR1 on the local cytokine profile induced by adjuvant injection (CBA on muscle homogenates); conditions: MaR1 5 ng/dose intramuscularly 1 h prior to AS01B; 4 h post-injection of the MaR1
Experimental: Mice (n=6/gr) were injected intramuscularly with the same synthetic MaR1 as the one used in Example 2 (5 ng/dose), or PBS as a control. 1 h later, mice received intramuscularly adjuvant AS01B or PBS. Muscles were collected at 4 h and 24 h following MaR1/PBS administration and frozen at −70° C. Muscles were thawed and homogenized and cytokines (TNFα, IL-6, IL1b and INFγ) and chemokine (G-CSF, MCP-1, KC and MIP-1a) levels in the cleared homogenates were measured by CBA (Becton Dickinson). The cytokine/chemokine concentrations are expressed in pg/mL. The plotted area represents the mean obtained for a specific cytokine/chemokine. A 2-way ANOVA was performed to compare the different groups. *: p<0.05 (See FIG. 4).

[2] = test system: local immune cells at the injection site (muscle); assay: Effect of MaR1 on the local immune cells profile induced by adjuvant injection (flow cytometry of muscle cells); conditions: MaR1 5 ng/dose intramuscularly 1 h prior to AS01B
Experimental: Mice (n=6/gr) were injected intramuscularly with synthetic 7-Maresin-1 (MaR1) (5 ng/dose) or PBS as a control. 1 h later, mice received intramuscularly adjuvant AS01B or PBS. Muscles were collected at 4 h and 24 h following 7-Maresin-1/PBS administration and local immune cells were extracted. The cells were stained with the following antibodies: Lytic, SiglecF, CD90.2, Ly6G, CD11b, CD11c, HLA DR, CD45 and CD19 and analysed by flow cytometry. The cell recruitment is expressed in number of cells per muscle. The plotted area represents the mean obtained for a specific subpopulation. A 2-way ANOVA was performed to compare the different groups. *: p<0.05. The chemical structure of the synthetic MaR1 used in the present experiment is identical to the chemical structure of MaR1 disclosed in Buckley et al. (“Proresolving Lipid Mediators and Mechanisms in the Resolution of Acute Inflammation”, 2014, Immunity 40: 315-327).

[3] = test system: Anti-OVA or anti-HBs antibodies; assay: Effect of MaR1 on specific antibody responses induced by vaccine injection (ELISA on sera); conditions: MaR1 5 ng/dose intramuscularly 1 h prior to OVA and HBS antigens in AS01B; vs antigens and adjuvant alone
Experimental: Mice (n=30/gr) were injected intramuscularly with the same synthetic MaR1 as the one used in Example 2 (5 ng/dose), or PBS as a control. 1 h later, mice were vaccinated with OVA and HBS antigens re-suspended in adjuvant AS01B or in PBS. This vaccination scheme was repeated 15 days later. Sera were taken 7 days after the second immunization. Anti-OVA (A) or anti-HBs (B) antibodies were detected by ELISA. Antibody titers are expressed in ng/mL. Each point represents an individual value; the bar represents the mean+/−SD. (See FIG. 6).

[4] = test system: CD4+ or CD8+ T cells expressing at least 2 cytokines; assay: Effect of MaR1 on specific T cell responses induced by vaccine injection (intracellular cytokine staining of spleen cells); conditions: MaR1 5 ng/dose intramuscularly 1 h prior to OVA and HBS antigens in AS01B; vs antigens and adjuvant alone
Experimental: Mice (n=30/gr) were injected intramuscularly with the same synthetic MaR1 as the one used in Example 2 (5 ng/dose) or PBS as a control. 1 h later, mice were vaccinated with OVA (Ovalbumin) and HBS (Hepatitis B Surface) antigens re-suspended in adjuvant AS01B or in PBS. This vaccination scheme was repeated 15 days later. Spleens were removed 7 days after the second immunization, and immune cells were extracted and stimulated overnight with OVA (A) or HBS (B) peptides. After surface staining with anti-CD4 and anti-CD8 antibodies, cells were labeled intra-cellularly with anti-IL-2, anti-IFN-γ and anti-TNF-α and analyzed by flow cytometry. Results are expressed as percentages of CD4+ or CD8+ T cells expressing at least 2 cytokines among the ones tested. Each point represents an individual value, the bar represents the mean+/−SD (see FIG. 5).

[5] = test system: cytokines (TNFα, IL-6, IL1b and IFNγ) and chemokine (G-CSF, MCP-1, KC and MIP-1a) levels in muscle; assay: Effect of RvE1 on the local cytokine profile induced by adjuvants injection (CBA on muscle homogenates)
Experimental: Mice (n=6/gr) were injected intramuscularly with PBS, adjuvant AS03 or adjuvant AS01B. 1 h and 6 h later, the same synthetic RvE1 as the one used in Example 1 (0.2 μg/dose), or PBS was administered also intramuscularly. Muscles were collected at 4 h (A) and 24 h (B) following adjuvant or PBS administration and frozen at −70° C. Muscles were thawed and homogenized and cytokines (TNFα, IL-6, IL1b and IFNγ) and chemokine (G-CSF, MCP-1, KC and MIP-1a) levels in the cleared homogenates were measured by CBA (Becton Dickinson). The cytokine/chemokine concentrations are expressed in pg/mL. The plotted area represents the mean obtained for a specific cytokine/chemokine. A 2-way ANOVA was performed to compare the different groups. *: p<0.05 (See FIG. 3).

[6] = test system: local immune cells at the injection site (muscle); assay: Effect of RvE1 on the local immune cells profile induced by adjuvants injection (flow cytometry of muscle cells); conditions: muscles at 24 h
Experimental: Mice (n=6/gr) were injected intramuscularly with PBS, AS03 adjuvant (oil-in-water emulsion) or AS01B adjuvant (MPL+QS21 in liposomes). 1 h and 6 h later, synthetic RvE1 (0.2 μg/dose) or PBS was administered also intramuscularly. Muscles were collected at 24 h following adjuvant/PBS administration and local immune cells were extracted. The cells were stained with the following antibodies: Lytic, SiglecF, CD90.2, Ly6G, CD11b, CD11c, HLA DR, CD45 and CD19 and analysed by flow cytometry. The cell recruitment is expressed in number of cells per muscle. The plotted area represents the mean obtained for a specific subpopulation. A 2-way ANOVA was performed to compare the different groups. *: p<0.05. The chemical structure of the synthetic RvE1 used in the present experiment is identical to the chemical structure of RvE1 disclosed in Buckley et al. (“Proresolving Lipid Mediators and Mechanisms in the Resolution of Acute Inflammation”, 2014, Immunity 40: 315-327).

| SMILES | modulation of local cytokines/chemokines profile [1] | pattern of immune cells at the injection site ([2]; 4 h post-injection) | pattern of immune cells at the injection site ([2]; 24 h post-injection) | anti-HBS antibody response induced by adjuvanted vaccine [3] | anti-OVA antibody response induced by adjuvanted vaccine [3] | CD4+ T cell response induced by adjuvanted vaccine [4] | CD8+ T cell response induced by adjuvanted vaccine [4] | modulation of local cytokines/chemokines concentration ([5]; RvE1 0.2 μg/dose intramuscularly after AS01B, 4 h post-injection of the adjuvant) | modulation of local cytokines/chemokines concentration ([5]; RvE1 0.2 μg/dose intramuscularly after AS01B, 24 h post-injection of the adjuvant) | modulation of local cytokines/chemokines concentration ([5]; RvE1 0.2 μg/dose intramuscularly after AS03, 4 h post-injection of the adjuvant) | modulation of local cytokines/chemokines concentration ([5]; RvE1 0.2 μg/dose intramuscularly after AS03, 24 h post-injection of the adjuvant) | recruitment of immune cells at the injection site (number of cells per muscle) ([6]; RvE1 0.2 μg/dose intramuscularly 1 h and 6 h after AS01B, vs AS01B alone) | recruitment of immune cells at the injection site (number of cells per muscle) ([6]; RvE1 0.2 μg/dose intramuscularly 1 h and 6 h after AS03, vs AS03 alone) | pattern of immune cells at the injection site ([6]; RvE1 on its own with PBS alone, compared with PBS alone) |
| --- | --- | --- | --- | --- | --- | --- | --- | --- | --- | --- | --- | --- | --- | --- |
| CC/C=C\C/C=C\C[C@H](O)\C=C/C=C/C=C/[C@H](O)C/C=C\CCC(=O)O [MaR1, 7-Maresin-1] | significant transient modulating effect | may be too early to detect an effect | increase of B cells and T cells recruitment on site | did not negatively impact the antibody immune response | did not negatively impact the antibody immune response | did not negatively impact the T cell immune response | did not negatively impact the T cell immune response |  |  |  |  |  |  |  |
| CC[C@@H](O)/C=C/C=C\C[C@@H](O)/C=C/C=C/C=C\[C@@H](O)CCCC(=O)O [RvE1, Resolvin E1] |  |  |  |  |  |  |  | no significant modulating effect was observed | no significant modulating effect was observed | a significant modulating effect was observed | no significant effect was observed | The same conclusion holds true | significantly reduced recruitment of all the immune cell types tested | only a minimal effect on the pattern of immune cells |
